Results taken from PubChem BioAssay AID1259407 (Chemical Carcinogenesis Research Information System (CCRIS), 2018).
Calls of active or inactive are those of the source. The rule behind the calls is not given here.

Test system: CCRIS mutagenicity, Ames/micronucleus/aberration tests
Test: CCRIS mutagenicity studies
[1] = Test System: AMES SALMONELLA TYPHIMURIUM, Strain/Indicator: TA98, Metabolic Activation: NONE, Method: PREINCUBATION
[2] = Test System: AMES SALMONELLA TYPHIMURIUM, Strain/Indicator: TA100, Metabolic Activation: NONE, Method: PREINCUBATION
[3] = Test System: AMES SALMONELLA TYPHIMURIUM, Strain/Indicator: TA1535, Metabolic Activation: NONE, Method: PREINCUBATION
[4] = Test System: AMES SALMONELLA TYPHIMURIUM, Strain/Indicator: TA1537, Metabolic Activation: NONE, Method: PREINCUBATION
[5] = Test System: AMES SALMONELLA TYPHIMURIUM, Strain/Indicator: TA98, Metabolic Activation: NONE, Method: STANDARD PLATE
[6] = Test System: AMES SALMONELLA TYPHIMURIUM, Strain/Indicator: TA98, Metabolic Activation: RAT, LIVER, S-9, AROCLOR 1254, Method: STANDARD PLATE
[7] = Test System: AMES SALMONELLA TYPHIMURIUM, Strain/Indicator: TA100, Metabolic Activation: NONE, Method: STANDARD PLATE
[8] = Test System: AMES SALMONELLA TYPHIMURIUM, Strain/Indicator: TA100, Metabolic Activation: RAT, LIVER, S-9, AROCLOR 1254, Method: STANDARD PLATE

C=CCOC(=O)c1ccccc1C(=O)OCC=C
mutagenic call (End Point: IN VITRO CHROMOSOMAL ABERRATIONS, Test System: CHO CELLS, Metabolic Activation: RAT, LIVER, S-9, AROCLOR 1254): active; positive; weak response
mutagenic call (Test System: AMES SALMONELLA TYPHIMURIUM, Strain/Indicator: TA98, Metabolic Activation: HAMSTER, LIVER, S-9, AROCLOR 1254, Method: PREINCUBATION): inactive; negative
mutagenic call [1]: inactive; negative
mutagenic call (Test System: AMES SALMONELLA TYPHIMURIUM, Strain/Indicator: TA98, Metabolic Activation: RAT LIVER S-9, PHENOBARBITAL AND BETA-NAPHTHOFLAVONE, Method: PREINCUBATION): inactive; negative
mutagenic call (Test System: AMES SALMONELLA TYPHIMURIUM, Strain/Indicator: TA98, Metabolic Activation: RAT, LIVER, S-9, AROCLOR 1254, Method: PREINCUBATION): inactive; negative
mutagenic call (Test System: AMES SALMONELLA TYPHIMURIUM, Strain/Indicator: TA100, Metabolic Activation: HAMSTER, LIVER, S-9, AROCLOR 1254, Method: PREINCUBATION): inactive; negative
mutagenic call [2]: inactive; negative
mutagenic call (Test System: AMES SALMONELLA TYPHIMURIUM, Strain/Indicator: TA100, Metabolic Activation: RAT LIVER S-9, PHENOBARBITAL AND BETA-NAPHTHOFLAVONE, Method: PREINCUBATION): inactive; negative
mutagenic call (Test System: AMES SALMONELLA TYPHIMURIUM, Strain/Indicator: TA100, Metabolic Activation: RAT, LIVER, S-9, AROCLOR 1254, Method: PREINCUBATION): inactive; negative
mutagenic call (Test System: AMES SALMONELLA TYPHIMURIUM, Strain/Indicator: TA1535, Metabolic Activation: HAMSTER, LIVER, S-9, AROCLOR 1254, Method: PREINCUBATION): inactive; negative
mutagenic call [3]: inactive; negative
mutagenic call (Test System: AMES SALMONELLA TYPHIMURIUM, Strain/Indicator: TA1535, Metabolic Activation: RAT LIVER S-9, PHENOBARBITAL AND BETA-NAPHTHOFLAVONE, Method: PREINCUBATION): inactive; negative
mutagenic call (Test System: AMES SALMONELLA TYPHIMURIUM, Strain/Indicator: TA1535, Metabolic Activation: RAT, LIVER, S-9, AROCLOR 1254, Method: PREINCUBATION): inactive; negative
mutagenic call (Test System: AMES SALMONELLA TYPHIMURIUM, Strain/Indicator: TA1537, Metabolic Activation: HAMSTER, LIVER, S-9, AROCLOR 1254, Method: PREINCUBATION): inactive; negative
mutagenic call [4]: inactive; negative
mutagenic call (Test System: AMES SALMONELLA TYPHIMURIUM, Strain/Indicator: TA1537, Metabolic Activation: RAT LIVER S-9, PHENOBARBITAL AND BETA-NAPHTHOFLAVONE, Method: PREINCUBATION): inactive; negative
mutagenic call (Test System: AMES SALMONELLA TYPHIMURIUM, Strain/Indicator: TA1537, Metabolic Activation: RAT, LIVER, S-9, AROCLOR 1254, Method: PREINCUBATION): inactive; negative
mutagenic call (Test System: E.COLI, Strain/Indicator: WP2UVRA/PKM101, Metabolic Activation: NONE, Method: PREINCUBATION): inactive; negative
mutagenic call (Test System: E.COLI, Strain/Indicator: WP2UVRA/PKM101, Metabolic Activation: RAT LIVER S-9, PHENOBARBITAL AND BETA-NAPHTHOFLAVONE, Method: PREINCUBATION): inactive; negative

CC[C@H](C)[C@@H]1NC(=O)[C@H](CCCNC(=N)N)NC(=O)[C@H](CC(=O)O)NC(=O)[C@H](CCSC)NC(=O)[C@H](CCCNC(=N)N)NC(=O)CNC(=O)CNC(=O)[C@H](Cc2ccccc2)NC(=O)[C@@H](NC(=O)[C@H](CO)NC(=O)[C@H](CO)NC(=O)[C@H](CCCNC(=N)N)NC(=O)[C@H](CCCNC(=N)N)NC(=O)[C@H](CC(C)C)NC(=O)[C@@H](N)CO)CSSC[C@@H](C(=O)N[C@@H](CC(N)=O)C(=O)N[C@@H](CO)C(=O)N[C@@H](Cc2ccccc2)C(=O)N[C@@H](CCCNC(=N)N)C(=O)N[C@@H](Cc2ccc(O)cc2)C(=O)O)NC(=O)CNC(=O)[C@H](CC(C)C)NC(=O)CNC(=O)[C@H](CO)NC(=O)[C@H](CCC(N)=O)NC(=O)[C@H](C)NC(=O)CNC1=O
mutagenic call [1]: inactive; negative
mutagenic call (Test System: AMES SALMONELLA TYPHIMURIUM, Strain/Indicator: TA98, Metabolic Activation: S-9, Method: PREINCUBATION): inactive; negative
mutagenic call [2]: inactive; negative
mutagenic call (Test System: AMES SALMONELLA TYPHIMURIUM, Strain/Indicator: TA100, Metabolic Activation: S-9, Method: PREINCUBATION): inactive; negative
mutagenic call [3]: inactive; negative
mutagenic call (Test System: AMES SALMONELLA TYPHIMURIUM, Strain/Indicator: TA1535, Metabolic Activation: S-9, Method: PREINCUBATION): inactive; negative
mutagenic call [4]: inactive; negative
mutagenic call (Test System: AMES SALMONELLA TYPHIMURIUM, Strain/Indicator: TA1537, Metabolic Activation: S-9, Method: PREINCUBATION): inactive; negative
mutagenic call (Test System: E. COLI, Strain/Indicator: WP2 UVRA, Metabolic Activation: NONE, Method: PREINCUBATION): inactive; negative
mutagenic call (Test System: E. COLI, Strain/Indicator: WP2 UVRA, Metabolic Activation: S-9, Method: PREINCUBATION): inactive; negative

CCCN(C)N=O
mutagenic call (Test System: CHINESE HAMSTER V-79, Strain/Indicator: V-79/8-AZAGUANINE, Metabolic Activation: RAT, LIVER, S-15, PHENOBARBITAL, Method: STANDARD PLATE): active; positive
mutagenic call (Test System: CHINESE HAMSTER V-79, Strain/Indicator: V-79/OUABAIN, Metabolic Activation: HAMSTER, HEPATOCYTES, Method: CELL-MEDIATED): active; positive

Cc1cc2c(C)c3ccccc3c(C)c2cc1C
mutagenic call [5]: active; positive
mutagenic call [6]: active; positive
mutagenic call [7]: inactive; negative
mutagenic call [8]: active; positive

CN(C)c1ccc(C(=C2C=CC(=[N+](C)C)C=C2)c2c(O)c(S(=O)(=O)[O-])cc3cc(S(=O)(=O)O)ccc23)cc1
mutagenic call [5]: inactive; negative
mutagenic call [6]: inactive; negative
mutagenic call [7]: inactive; negative
mutagenic call [8]: inactive; negative
mutagenic call (Test System: AMES SALMONELLA TYPHIMURIUM, Strain/Indicator: TA1535, Metabolic Activation: NONE, Method: STANDARD PLATE): inactive; negative
mutagenic call (Test System: AMES SALMONELLA TYPHIMURIUM, Strain/Indicator: TA1535, Metabolic Activation: RAT, LIVER, S-9, AROCLOR 1254, Method: STANDARD PLATE): inactive; negative
mutagenic call (Test System: AMES SALMONELLA TYPHIMURIUM, Strain/Indicator: TA1538, Metabolic Activation: NONE, Method: STANDARD PLATE): inactive; negative
mutagenic call (Test System: AMES SALMONELLA TYPHIMURIUM, Strain/Indicator: TA1538, Metabolic Activation: RAT, LIVER, S-9, AROCLOR 1254, Method: STANDARD PLATE): inactive; negative

O[C@@H]1[C@H]2O[C@H]2c2c(ccc3ccccc23)[C@H]1O
mutagenic call (Test System: AMES SALMONELLA TYPHIMURIUM, Strain/Indicator: TA97, Metabolic Activation: NONE, Method: PREINCUBATION): active; positive
mutagenic call [1]: active; positive
mutagenic call [2]: active; positive
mutagenic call [7]: active; positive
mutagenic call (Test System: AMES SALMONELLA TYPHIMURIUM, Strain/Indicator: TA104, Metabolic Activation: NONE, Method: PREINCUBATION): active; positive
mutagenic call (Test System: CHINESE HAMSTER V-79, Strain/Indicator: V-79/6-THIOGUANINE, Metabolic Activation: NONE): active; positive

Cc1c2cccc(F)c2c(C)c2c1ccc1ccccc12
mutagenic call (Test System: CHINESE HAMSTER V-79, Strain/Indicator: V-79/OUABAIN, Metabolic Activation: CELL-MEDIATED, Method: STANDARD PLATE): active; positive
